Data set [1] can be described thus: Permeability in artificial membrane assay. Format: ADME, cell membranes. The settings on record: PAMPA; read-out: permeability. For orientation: PAMPA measures passive passage across an artificial lipid membrane.
The next data set can be described thus: in vitro. The settings on record: dog, MDCK.

For the compound `CCN(C(=O)c1c(-c2ccccc2Cl)noc1C)c1cccc(Cl)c1`, the Papp in data set [1] is 31 ×10⁻⁶ cm/s; in the data set “in vitro” it was 44.8 ×10⁻⁶ cm/s.

Values taken from ChEMBL document CHEMBL1156896, “Synthesis and structure-activity relationships of a series of 3-aryl-4-isoxazolecarboxamides as a new class of TGR5 agonists” (Bioorg Med Chem Lett, 2010).
